Source: patent US20230123334A1, “AMINO LIPID COMPOUND, PREPARATION METHOD THEREFOR, AND APPLICATION THEREOF” (SHENZHEN SHENXIN BIOTECHNOLOGY CO., LTD., priority 2020, published 2023)

Experiments:
HEK293 cells [1] = assay: Preliminary screening as mRNA vectors, EGFP mRNA transfection of HEK293 cells; assay type: cell-based; settings: 96-well plates, EGFP mRNA 50 ng per well, percentage of GFP fluorescent cells relative to total number of cells (Hoechst)
Method in brief: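 HEK293 cells in DMEM plus 10% FBS transfected in 96-well format with 50 ng EGFP mRNA per well; Lipofectamine2000 served as positive control. Read-out is the percentage of GFP-fluorescent cells among total cells, counted by Hoechst nuclear stain.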

HEK293 cells [2] = assay: Preliminary screening as DNA vectors, GFP transfection of HEK293 cells; assay type: cell-based; settings: HEK293 cells; lipid/DOPE liposome with 75 ng plasmid DNA (psin-EGFP-IRES-Puro); number of cells expressing GFP divided by total number of nuclei (Hoechst)
Method in brief: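 HEK293 cells in DMEM/10% FBS transfected with 75 ng EGFP plasmid per well complexed with amino lipid/DOPE liposomes in pH 5.6 sodium acetate. Hoechst nuclear stain added 20-24 h post-transfection, then cells cultured another 20-24 h. Confocal imaging gives GFP-positive cells as % of total nuclei.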

Compound	Absolute mRNA transfection efficiency in HEK293 cells (HEK293 cells [1]; HEK293 cells)	Absolute DNA transfection efficiency in HEK293 cells (HEK293 cells [2])	Absolute mRNA transfection efficiency in HEK293 cells (HEK293 cells [1])
CCCCCCCCCCCCN(CCCCCCCCCCCC)c1nc(NCCN(C)C)nc(N(CCCCCCCCCCCC)CCCCCCCCCCCC)n1 [2N12^2N12D1]	0.1%	0.4%	–
CCCCCCCCCCCCN(CCCCCCCCCCCC)c1nc(NCCN2CCOCC2)nc(N(CCCCCCCCCCCC)CCCCCCCCCCCC)n1 [2N12^2N12D2]	1.9%	0.0%	–
CCCCCCCCCCCCN(CCCCCCCCCCCC)c1nc(NCCN2CCCC2)nc(N(CCCCCCCCCCCC)CCCCCCCCCCCC)n1 [2N12^2N12D3]	0.0%	1.3%	–
CCCCCCCCCCCCN(CCCCCCCCCCCC)c1nc(NCCN2CCCCC2)nc(N(CCCCCCCCCCCC)CCCCCCCCCCCC)n1 [2N12^2N12D4]	2.6%	0.0%	–
CCCCCCCCCCCCN(CCCCCCCCCCCC)c1nc(NCCN2CCN(C)CC2)nc(N(CCCCCCCCCCCC)CCCCCCCCCCCC)n1 [2N12^2N12D5]	2.7%	0.0%	–
CCCCCCCCCCCCN(CCCCCCCCCCCC)c1nc(NCCCN(C)C)nc(N(CCCCCCCCCCCC)CCCCCCCCCCCC)n1 [2N12^2N12D6]	0.2%	0.0%	–
CCCCCCCCCCCCN(CCCCCCCCCCCC)c1nc(NCCN(CC)CC)nc(N(CCCCCCCCCCCC)CCCCCCCCCCCC)n1 [2N12^2N12D7]	0.3%	0.0%	–
CCCCCCCCCCCCN(CCCCCCCCCCCC)c1nc(NCCCN2CCOCC2)nc(N(CCCCCCCCCCCC)CCCCCCCCCCCC)n1 [2N12^2N12D8]	0.0%	0.1%	–
CCCCCCCCCCCCN(CCCCCCCCCCCC)c1nc(NCCCN2CCN(C)CC2)nc(N(CCCCCCCCCCCC)CCCCCCCCCCCC)n1 [2N12^2N12D9]	0.0%	0.2%	–
CCCCCCCCCCCCN(CCCCCCCCCCCC)c1nc(NCC2CCN(C)CC2)nc(N(CCCCCCCCCCCC)CCCCCCCCCCCC)n1 [2N12^2N12D10]	3.3%	1.8%	–
CCCCCCNc1nc(NCCCCCC)nc(NCCN(C)C)n1 [Compound N6N6D1]	0.0%	0.0%	–
CCCCCCNc1nc(NCCCCCC)nc(NCCN2CCOCC2)n1 [Compound N6N6D2]	0.0%	0.0%	–
CCCCCCNc1nc(NCCCCCC)nc(NCCN2CCCC2)n1 [Compound N6N6D3]	0.3%	0.2%	–
CCCCCCNc1nc(NCCCCCC)nc(NCCN2CCCCC2)n1 [Compound N6N6D4]	0.1%	0.0%	–
CCCCCCNc1nc(NCCCCCC)nc(NCCN2CCN(C)CC2)n1 [Compound N6N6D5]	0.0%	0.0%	–
CCCCCCNc1nc(NCCCCCC)nc(NCCCN(C)C)n1 [Compound N6N6D6]	0.0%	0.0%	–
CCCCCCNc1nc(NCCCCCC)nc(NCCN(CC)CC)n1 [Compound N6N6D7]	0.0%	0.0%	–
CCCCCCNc1nc(NCCCCCC)nc(NCCCN2CCOCC2)n1 [Compound N6N6D8]	0.0%	0.0%	–
CCCCCCNc1nc(NCCCCCC)nc(NCCCN2CCN(C)CC2)n1 [Compound N6N6D9]	0.2%	0.0%	–

Compound	Absolute mRNA transfection efficiency in HEK293 cells (HEK293 cells [1]; HEK293 cells)	Absolute DNA transfection efficiency in HEK293 cells (HEK293 cells [2])	Absolute mRNA transfection efficiency in HEK293 cells (HEK293 cells [1])
CCCCCCNc1nc(NCCCCCC)nc(NCC2CCN(C)CC2)n1 [Compound N6N6D10]	0.0%	0.0%	–
CCCCCCCNc1nc(NCCCCCC)nc(NCCN(C)C)n1 [Compound N6N7D1]	0.1%	0.0%	–
CCCCCCCNc1nc(NCCCCCC)nc(NCCN2CCOCC2)n1 [Compound N6N7D2]	0.4%	0.0%	–
CCCCCCCNc1nc(NCCCCCC)nc(NCCN2CCCC2)n1 [Compound N6N7D3]	0.0%	0.4%	–
CCCCCCCNc1nc(NCCCCCC)nc(NCCN2CCCCC2)n1 [Compound N6N7D4]	0.0%	0.0%	–
CCCCCCCNc1nc(NCCCCCC)nc(NCCN2CCN(C)CC2)n1 [Compound N6N7D5]	0.4%	0.0%	–
CCCCCCCNc1nc(NCCCCCC)nc(NCCCN(C)C)n1 [Compound N6N7D6]	0.1%	0.0%	–
CCCCCCCNc1nc(NCCCCCC)nc(NCCN(CC)CC)n1 [Compound N6N7D7]	0.0%	0.0%	–
CCCCCCCNc1nc(NCCCCCC)nc(NCCCN2CCOCC2)n1 [Compound N6N7D8]	0.0%	0.0%	–
CCCCCCCNc1nc(NCCCCCC)nc(NCCCN2CCN(C)CC2)n1 [Compound N6N7D9]	0.0%	0.0%	–
CCCCCCCNc1nc(NCCCCCC)nc(NCC2CCN(C)CC2)n1 [Compound N6N7D10]	0.0%	0.0%	–
CCCCCCCCNc1nc(NCCCCCC)nc(NCCN(C)C)n1 [Compound N6N8D1]	0.0%	0.0%	–
CCCCCCCCNc1nc(NCCCCCC)nc(NCCN2CCOCC2)n1 [Compound N6N8D2]	0.1%	0.0%	–
CCCCCCCCNc1nc(NCCCCCC)nc(NCCN2CCCC2)n1 [Compound N6N8D3]	0.4%	0.1%	–
CCCCCCCCNc1nc(NCCCCCC)nc(NCCN2CCCCC2)n1 [Compound N6N8D4]	0.0%	0.0%	–
CCCCCCCCNc1nc(NCCCCCC)nc(NCCN2CCN(C)CC2)n1 [Compound N6N8D5]	0.0%	0.0%	–
CCCCCCCCNc1nc(NCCCCCC)nc(NCCCN(C)C)n1 [Compound N6N8D6]	0.0%	0.1%	–
CCCCCCCCCCCCCCCCSc1nc(NCC2CCN(C)CC2)nc(N(CCCCCCCCCCCC)CCCCCCCCCCCC)n1 [D10S16^2N12]	–	–	0.2%
CCCCCCCCCCCCCCCCCCSc1nc(NCC2CCN(C)CC2)nc(N(CCCCCCCCCCCC)CCCCCCCCCCCC)n1 [D10S18^2N12]	–	–	0.0%
